Reference: US20200030342A1, “DEHYDROEPIANDROSTERONE (DHEA) SUPPL[…] FEMALE SEXUAL DESIRE AND FUNCTION IN PRE-[…]” (American Infertility of New York, P.C., priority 2018, published 2020)

Assays:
[1] = test system: premenopausal infertile women; test: Female Sexual Function Index (FSFI) questionnaire before and after DHEA supplementation, observational study; assay type: in vivo
Method: An observational study was conducted in an academically affiliated private fertility center. Patients included 87 premenopausal infertile women, 50 of whom completed the study including the Female Sexual Function Index (FSFI) questionnaires and comprehensive endocrine evaluation before and 4-8 weeks after initiating 25 mg of oral micronized DHEA TID. An example of a FSFI questionnaire is in a FSFI Scoring Appendix at the end of this patent application together with a discussion as to the manner of determining FSFI domain scores and full-scale score, which establish FSFI baselines.
(§1) All patients in the study were asked to complete the self-reported Female Sexual Function Index (FSFI) questionnaire^31 prior to initiation to DHEA supplements and again 4-8 weeks later. The patients' fertility treatments were not affected by their participation in this study, in laboratory investigations, and/or timing of procedures. Patients underwent the same standard endocrine evaluations all patients undergo at the Center for Human Reproduction, including measurement of serum androgen levels: DHEA, DHEAS, total (TT) and free testosterone (FT) before, and 4-8 weeks after, initiating 25 mg of oral DHEA supplementation TID. All here presented hormone levels were obtained by commercial assays (LabCorp, Burlington, N.C.). All androgen levels were measured using high-pressure liquid chromatography/tandem mass spectrometry.
Pearson correlation was used to investigate relationships between FSFI scores and patient demographics, as well as, hormone levels. Comparisons of FSFI scores and endocrine parameters before—and after—DHEA supplementation were made using paired T-tests. Based on starting FSFI scores patients were further subdivided into quartiles. Patient responses before and after DHEA supplementation from those in lowest and highest quartiles were then compared. Groups were compared using a two-sampled T-test or chi-square test. A P-value <0.05 was considered significant. All analyses were conducted using SAS version 9.4 (SAS Institute Inc. Cary, N.C.).
The individual domain scores and full scale (overall) score of the FSFI can be derived from the computational formula outlined in the table below. For individual domain scores, add the scores of the individual items that comprise the domain and multiply the sum by the domain factor (see below). Add the six domain scores to obtain the full scale score. […] Subject scores can be entered in the right-hand colum.

[2] = Endocrine evaluation: serum hormone levels before and after DHEA supplementation; assay type: in vivo, women
From the text: as §1
The measurement procedures for measuring serum androgen and FSH are conventional. The formulation for an oral dosage of DHEA is conventional.

[3] = Center's experience with DHEA treatment of infertile patients: testosterone levels in response to DHEA or transdermal testosterone; assay type: in vivo, women
From the text: One purpose of DHEA supplementation is raising testosterone levels. In other words, the biologically active hormone is testosterone. Its application, however, has more side effects. But some patients have a hard time converting DHEA to testosterone [Shohat-Tal A, Sen A, Barad D H, Kushnir V, Gleicher N. Genetics of androgen metabolism in women with infertility and hypoandrogenism. Nat Rev Endocrinol 2015; 11(7):429-441] and, therefore, must be treated directly with testosterone. The testosterone dosage is 0.05 mg transdermal by pump between once to 2-times per day for the same time period that DHEA supplementation dosages are taken. The peripheral testosterone levels and SHBG in blood are monitored and adjusted accordingly. Sex hormone binding globulin (SHBG) is a protein that is produced by the liver and binds tightly to the hormones testosterone, dihydrotestosterone (DHT), and estradiol (an estrogen). If patients require testosterone directly, the DHEA supplementation is still continued.

[4] = Baseline FSFI Score < 25.7, N = 12
[5] = Baseline FSFI Score ≥ 31.9, N = 13
[6] = lowest starting FSFI score quartile (<25.7)
[7] = whole group N=50, DHEA 25 mg TID 4-8 weeks, mean change
[8] = whole group N=50, DHEA 25 mg TID 4-8 weeks, mean change of domain score

SMILES: C[C@]12CC[C@H](O)CC1=CC[C@@H]1[C@@H]2CC[C@]2(C)C(=O)CC[C@@H]12 [DHEA, dehydroepiandrosterone]
- Δ Arousal [1, 4]: 1.3±1.7
- Δ Desire [1, 4]: 1.0±0.8
- Δ Lubrication [1, 4]: 0.8±2.3
- Δ Orgasm [1, 4]: 1.0±2.3
- Δ Pain [1, 4]: 0.9±2.3
- Δ Satisfaction [1, 4]: 0.9±1.3
- Δ Arousal [1, 5]: −0.2 ± 0.5
- Δ Desire [1, 5]: −0.1 ± 0.6
- Δ Lubrication [1, 5]: −0.1 ± 0.6
- Δ Orgasm [1, 5]: −0.5 ± 1.1
- Δ Pain [1, 5]: −0.1 ± 0.4
- Δ Satisfaction [1, 5]: 0.0 ± 0.7
- Δ FSFI Score ([1]; highest starting FSFI quartile, Baseline FSFI Score ≥ 31.9, N = 13, DHEA 25 mg TID 4-8 weeks): −1.0 ± 2.7
- Δ FSFI Score ([1]; lowest starting FSFI quartile, Baseline FSFI Score < 25.7, N = 12, DHEA 25 mg TID 4-8 weeks): 6.1±8.0
- Improvement in domain arousal [1, 6]: 46%
- Improvement in domain desire [1, 6]: 40%
- Improvement in domain lubrication [1, 6]: 33%
- Improvement in domain orgasm [1, 6]: 54%
- Improvement in domain pain [1, 6]: 25%
- Improvement in domain satisfaction [1, 6]: 24%
- Increase in total FSFI score [1, 6]: 34%
- Δ Arousal: Confidence [1, 7]: 0.4
- Δ Arousal: Frequency [1, 7]: 0.3
- Δ Arousal: Level [1, 7]: 0.4
- Δ Arousal: Satisfaction [1, 7]: 0.4
- Δ Desire: Frequency [1, 7]: 0.5
- Δ Desire: Level [1, 7]: 0.5
- Δ Lubrication: Difficulty (first line) [1, 7]: 0.3
- Δ Lubrication: Difficulty (second line, after Maintaining) [1, 7]: 0.2
- Δ Lubrication: Frequency [1, 7]: 0.3
- Δ Lubrication: Maintaining [1, 7]: 0.3
- Δ Orgasm: Difficulty [1, 7]: 0.1
- Δ Orgasm: Frequency [1, 7]: 0.0
- Δ Orgasm: Satisfaction [1, 7]: 0.1
- Δ Pain: During [1, 7]: 0.3
- Δ Pain: Following [1, 7]: 0.2
- Δ Pain: Level [1, 7]: 0.0
- Δ Satisfaction: Closeness [1, 7]: 0.3
- Δ Satisfaction: Overall [1, 7]: 0.3
- Δ Satisfaction: Relationship [1, 7]: 0.2
- Δ Arousal [1, 8]: 0.5
- Δ Desire [1, 8]: 0.6
- Δ Lubrication [1, 8]: 0.4
- Δ Orgasm [1, 8]: 0.1
- Δ Pain [1, 8]: 0.2
- Δ Satisfaction [1, 8]: 0.3
- Δ FSFI Score ([1]; whole group, 50 premenopausal infertile women, oral micronized DHEA 25 mg TID, before vs 4-8 weeks after, mean): 2.0
- Domain score for arousal, increase ([1]; whole study group): 12%
- Domain score for desire, increase ([1]; whole study group): 17%
- Domain score for orgasm, change ([1]; whole study group): no significant changes
- Domain score for pain, change ([1]; whole study group): no significant changes
- Domain score for satisfaction, change ([1]; whole study group): no significant changes
- Domain score for lubrication, trend towards improvement ([1]; whole study group, P=0.0551): 8%
- FSFI score increase ([1]; whole study group, following DHEA supplementation): 7%
- FSFI score after DHEA supplementation ([1]; whole study group, from baseline 27.2±6.9): 29.2±5.6
- Δ Hormone: AMH [2, 4]: 0.0 ± 0.6 ng/mL
- Δ Hormone: Cortisol [2, 4]: 2.5 ± 1.6 µg/dL
- Δ Hormone: DHEA [2, 4]: 291.0 ± 227.7 ng/dL
- Δ Hormone: FSH [2, 4]: −3.6 ± 2.6 mIU/mL
- Δ Hormone: Free Testosterone [2, 4]: 1.8 ± 1.3 pg/mL
- Δ Hormone: SHBG [2, 4]: -15.8 ± 41.1 nmol/L
- Δ Hormone: Total Testosterone [2, 4]: 16.4 ± 18.5 ng/dL
- Δ Hormone: AMH [2, 5]: 0.1 ± 0.6 ng/mL
- Δ Hormone: Cortisol [2, 5]: -0.4 ± 5.5 µg/dL
- Δ Hormone: DHEA [2, 5]: 275.7 ± 186.6 ng/dL
- Δ Hormone: FSH [2, 5]: −1.6 ± 3.5 mIU/mL
- Δ Hormone: Free Testosterone [2, 5]: 0.5 ± 1.4 pg/mL
- Δ Hormone: SHBG [2, 5]: -21.0 ± 51.6 nmol/L
- Δ Hormone: Total Testosterone [2, 5]: 11.8 ± 18.6 ng/dL
- Δ Hormone: AMH [2, 7]: 0.0 ng/mL
- Δ Hormone: Cortisol [2, 7]: 1.3 µg/dL
- Δ Hormone: FSH [2, 7]: −2.6 mIU/mL
- Δ Hormone: Free Testosterone [2, 7]: 1.4 pg/mL
- Δ Hormone: SHBG [2, 7]: -24.0 nmol/L
- Δ Hormone: Total Testosterone [2, 7]: 15.1 ng/dL
- Δ Hormone: DHEA ([2]; whole group N=50, DHEA 25 mg TID 4-8 weeks, mean change of serum level): 235.1 ng/dL
- AMH levels, change ([2]; whole study group): no change
- Cortisol levels, change ([2]; whole study group): no change
- FSH levels, decrease from baseline ([2]; whole study group, baseline 10.3±5.4 mIU/mL): 2.6±4.4 mIU/mL
- SHBG, decrease from baseline ([2]; whole study group, baseline 92.7±43.2 nmol/L): 24.0 ± 39.4 nmol/L
- All serum androgen levels (DHEA, DHEAS, TT, FT), change from baseline ([2]; whole study group, each P<0.0001): increased
- Patients who do not raise their testosterone levels in response to DHEA supplementation ([3]; infertile patients overall, a little more among African-descent women): less than 5%

SMILES: C[C@]12CC[C@H]3[C@@H](CCC4=CC(=O)CC[C@@]43C)[C@@H]1CC[C@@H]2O [testosterone]
- Testosterone levels achieved in patients not responding to DHEA ([3]; 0.05 mg transdermal by pump once to 2-times per day, same time period): very similar testosterone levels are achieved
